Assay results published in US20070129281A1, “Pharmaceutical compounds” (priority 2003, published 2007).
“Also recorded” adds a separate entry of the source.

Target: T1, PTP1B catalytic domain (residues 1-321) (Homo sapiens, UniProt P18031)
T1 construct: crystallisation of the catalytic domain of PTP1B (residues 1-321) were based on literature conditions; made in house; host or cells: E. coli BL21(DE3), vector pET19b
T1 sequence (P18031 1-321): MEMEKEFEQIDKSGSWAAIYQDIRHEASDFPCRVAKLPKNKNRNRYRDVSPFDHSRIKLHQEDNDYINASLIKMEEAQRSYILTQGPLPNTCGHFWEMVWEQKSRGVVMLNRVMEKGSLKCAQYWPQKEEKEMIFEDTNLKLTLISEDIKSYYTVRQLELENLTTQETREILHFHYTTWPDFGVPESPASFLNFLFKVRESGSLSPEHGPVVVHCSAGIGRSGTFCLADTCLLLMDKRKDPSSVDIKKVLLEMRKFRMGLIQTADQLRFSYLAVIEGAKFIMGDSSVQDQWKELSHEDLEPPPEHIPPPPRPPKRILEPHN
Assay: Crystal soaking of PTP1B crystals with X-ray structure determination (oxidation state of Cys215)
Details: for State of the catalytic Cys215 / active site of PTP1B in the crystal after soaking (X-ray data): crystals soaked about 24 hours in mother liquor without DTT containing 100 mM compound
Method: For overnight soaking experiments crystals were transferred into a standard mother liquor containing 16% PEG 4000, 0.1 M HEPES (pH 7.5), 0.2 M magnesium acetate, 10 mM DTT and the compound of interest (See Table 3 below).
All data were collected at 100 K. Data sets of sulfenic- sulfinic- and sulfonic acid PTP1B derivatives were automatically collected on a Jupiter140 CCD detector mounted on a RU3HR rotating anode generator equipped with an ACTOR sample-changing robot (RigakuMSC, The Woodlands Tex., USA). They were processed and scaled using D*TREK^21 and converted to structure factors using programs from the CCP4 suite^22.
Oxidation of Cys215 to the sulfenyl-amide derivative was carried out by soaking crystals for approximately 24 hours in mother liquor without DTT, but containing 100 mM 2-phenyl-isoxazolidine-3,5-dione. Data were collected at station 14.1 (SRS, Daresbury) and processed and scaled using MOSFLM/SCALA^22.
Reversibility of the sulfenyl-amide derivative was checked by first soaking two crystals in 100 mM 2-phenyl-isoxazolidine-3,5-dione for 24 hours.
All results were evaluated using the graphics programs QUANTA (Accelrys, San Diego Calif., USA) and Astexviewer™^23. Initial refinement was always carried out using the CCP4-based Astex automatic refinement scripts, followed by rounds of positional and B-factor refinement with REFMAC5^22 alternated with manual rebuilding steps using QUANTA.

Row | State of the catalytic Cys215 / active site of PTP1B in the crystal after soaking (X-ray data) | SMILES | State of the catalytic Cys215 / active site of PTP1B in the crystal after soaking (X-ray data) (listed as 2-Phenyl-isoxazolidine-3,5-dione) | Active site conformation of sulfenyl-amide PTP1B crystal after back soaking (reversibility, X-ray data) (back soaking 24 hours in mother liquor containing 20 mM reduced glutathione, after a 100 mM 2-phenyl-isoxazolidine-3,5-dione soak)
1 | Sulfenyl-amide formation was confirmed | O=C1CC(=O)N(c2ccccc2)O1 [2-phenyl-isoxazolidine-3,5-dione] | confirmed the formation of the sulfenyl-amide bond | –
2 | – | N[C@@H](CCC(=O)N[C@@H](CS)C(=O)NCC(=O)O)C(=O)O [reduced glutathione, glutathione] | – | entire active site back in its native conformation; also recorded: confirmed the active site in its native conformation
